Where a name gives a salt, the structure may show the parent alone. Read-outs that look alike come from different tables or passages of the source.
What was measured:
[1] = target: NS2B-NS3 interactions (Nluc-E66stop/GCN) (Dengue virus type 2, UniProt P29990); assay: biochemical; assay type: binding, DENV2
[2] = Cytotoxicity, MTT or WST-8 cell proliferation assay; conditions: human, A549 cells
DENV2 [3] = assay: microbe, parasite or virus in culture; conditions: Dengue virus
[4] = target: DENV2 His-NS2B/His-MBP-NS3 protease (Dengue virus type 2, UniProt P29990); assay: NS2B/NS3 protease inhibition assay; assay type: biochemical
DENV2 His-NS2B/His-MBP-NS3 protease, sequence (P29990 1476-1660 limits assumed): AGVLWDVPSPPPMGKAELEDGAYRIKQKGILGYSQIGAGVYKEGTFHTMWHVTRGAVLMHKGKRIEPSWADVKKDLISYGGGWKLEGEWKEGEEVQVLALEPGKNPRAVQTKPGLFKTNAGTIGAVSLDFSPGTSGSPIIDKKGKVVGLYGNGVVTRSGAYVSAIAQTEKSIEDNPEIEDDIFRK

DENV2 [5] = test system: DENV2
[6] = test system: ZIKV (Puerto Rico strain PRVABC59); assay: Viral titer reduction assay in A549 cells, ZIKV; assay type: cell-based, Zika virus; conditions: for titer of ZIKV in the absence of light exposure: in dark
[7] = target: ZIKV GST-NS3 protease domain / FLAG-tagged ZIKV NS2B (Zika virus, UniProt Q32ZE1); assay: Competitive GST pull-down assay; assay type: binding; conditions: pre-incubation with GST-NS3 beads; dose-dependent
ZIKV GST-NS3 protease domain / FLAG-tagged ZIKV NS2B, sequence (Q32ZE1 1499-1676): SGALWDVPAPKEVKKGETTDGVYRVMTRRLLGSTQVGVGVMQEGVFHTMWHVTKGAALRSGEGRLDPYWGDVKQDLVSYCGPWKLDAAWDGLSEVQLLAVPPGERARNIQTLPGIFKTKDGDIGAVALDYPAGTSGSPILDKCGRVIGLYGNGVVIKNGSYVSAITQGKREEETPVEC
Protocol: GST-NS3 or the GST-tag (10 μg) was immobilized on Glutathione sepharose-4B affinity beads (GE HealthCare). FLAG-tagged NS2B (10 μg) was incubated with the beads for 2 hours, and subjected to WB, using anti-FLAG (Genscript) and anti-GST antibodies (GE Healthcare). […] The assay was performed the same as in FIG. 32A, except that 2-fold dilution series of drugs were incubated with the GST-NS3 beads overnight prior to incubation with the FLAG-NS2B. […] The binding of NS2B to NS3 in the absence of each drag (DMSO control) was set as 100%. The relative binding of NS2B to NS3 in the presence of each drug was normalized to the DMSO control.

[8] = target: refolded His-NS3 protease domain (Dengue virus type 2, UniProt P29990); assay: Surface plasmon resonance (SPR); assay type: binding
refolded His-NS3 protease domain, sequence (P29990 1476-1653 limits assumed): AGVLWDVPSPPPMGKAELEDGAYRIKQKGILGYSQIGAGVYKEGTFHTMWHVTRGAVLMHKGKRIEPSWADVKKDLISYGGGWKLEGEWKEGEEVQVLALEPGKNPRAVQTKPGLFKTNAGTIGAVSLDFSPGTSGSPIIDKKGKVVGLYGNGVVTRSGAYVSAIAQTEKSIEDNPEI

YFV = assay: microbe, parasite or virus in culture; assay type: cell-based, yellow fever virus
ZIKV = assay: Time-of-addition experiment in infected A549 cells; assay type: cell-based, Zika virus; conditions: for effectiveness of addition at 24-hour post-infection versus at the time of infection: temoporfin 90 nM, niclosamide 0.75 μM, viral plaque reduction assay; for virus reduction: titers at 48 h, no ambient light
JEV = assay: microbe, parasite or virus in culture; assay type: cell-based, Japanese encephalitis virus
WNV = assay: microbe, parasite or virus in culture; assay type: cell-based, West Nile virus
ZIKV NS3 expression = assay: Western blot of viral protein expression; assay type: cell-based; conditions: 48 hrs; dose-dependent
Protocol: The ability of compounds to inhibit viral protein expression was also tested by WB, using GTX133309 ZIKV α-NS3 antibody (GeneTex, Inc.).
Lower panel, NS3 expression normalized to the GAPDH loading control.

DENV2 His-MBP-NS3 = DENV2 His-MBP-NS3 (Dengue virus type 2, UniProt P29990); assay: Protein thermal shift assay (PTSA); assay type: binding; conditions: compound 4.8 μM, protein 2.5 μM
DENV2 His-MBP-NS3, sequence (P29990 1476-1660 limits assumed): as the sequence (P29990 1476-1660 limits assumed) above
Protocol: PTSA was conducted using an Applied Biosystem 7500 Fast Real-Time PCR System (ThermoFisher Scientific) from 25 to 80° C. The DENV2 His-MBP-NS3 (final concentration of 2.5 μM in 1× PBS) was mixed with each compound to attain a 4.8 μM final concentration in 1.6% DMSO in the MicroAmp® Fast Optical 96-Well Reaction Plate (ThermoFisher Scientific). Thermal denaturation was monitored using SYPRO Orange (Life Technologies) according to manufacturer's manual. The denaturation of the proteins was monitored by following the increase of the fluorescence emitted by the probe that binds exposed hydrophobic regions of the denatured protein. The melting temperature (Tm) was calculated as the mid-log of the transition phase from the native to the denatured protein, using a Derivative model using the Protein Thermal Shift™ Software v1.0 (ThermoFisher Scientific). The reference unfolding temperature of proteins in 1.6% DMSO (Tm-DMSO) was subtracted from the values in the presence of each compounds (Tm-comp) to obtain thermal shifts, ΔTm=Tm-comp−Tm-DMSO. Compounds were considered to be binders when ΔTm>0.5° C.

A549 cells = assay: Cytotoxicity, MTT or WST-8 cell proliferation assay
ZIKV GZ01/2016 strain = assay: Lethal A129 mice model; assay type: in vivo; conditions: 1 mg/kg ip daily for 5 days
From the text: For the lethal A129 mice model, a group of four-week old A129 mice were infected intraperitoneally (ip) with 2×10^5 PFU of ZIKV GZ01/2016 strain. […] Mice were observed daily for signs of illness and mortality. Survival curves were compared using the Log-rank test. All the ZIKV-infected animals treated with vehicle died with typical neurological symptoms including hind limb weakness and paralysis (FIG. 31B). […] Viremia was detected by RT-qPCR on day 2 post-ZIKV infection in three-week old Balb/C mice.

ZIKV strain GZ01/2016 = assay: Viremia model in immunocompetent Balb/C mice; assay type: in vivo; conditions: 0.02 mg/mice ip daily for 2 days; RT-qPCR on day 2 post-infection
Protocol: Viremia on day 2 post-infection (pi) was determined by RT-qPCR, and statistical analysis was performed using the unpaired, two-tailed t-test.

ZIKV strain GZ01 = conditions: ZIKV strain GZ01, Vero cells, RT-qPCR
SLEV = assay type: cell-based, St. Louis encephalitis virus; conditions: without ambient light (in dark)
POWV = assay type: cell-based, Powassan virus; conditions: without ambient light (in dark)
[9] = DENV2, A549, read-out: EC50 (DENV2)
[10] = Table 1, read-out: NS2B-MBP NS3 protease IC50
[11] = NS2B-NS3 SLC signal, read-out: SLC IC50
[12] = Japanese encephalitis virus, A549, JEV
[13] = 25° C., 1:1 Langmuir binding model, read-out: dissociation constant (KD)
[14] = ZIKV*, without ambient light (in dark)
[15] = JEV*, without ambient light (in dark)

NS2B-NS3 interactions (Nluc-E66stop/GCN), sequence (P29990 1476-1660 limits assumed): as above

c1ccc(CCNc2nc(-c3ccccc3)cs2)cc1 [Fanetizole]
IC50 [1]: 12.4 µM

Cc1ccc(O)c(-n2nc3ccccc3n2)c1 [2-(2H-Benzotriazol-2-yl)-4 methylphenol]
IC50 [1]: 7.8 µM

O=C(Nc1ncc([N+](=O)[O-])s1)c1cccs1 [Tenonitrozole]
IC50 [1]: 4.9 µM

Clc1ccccc1-c1nc(-c2ccncc2)no1 [Pifexole]
IC50 [1]: 7.5 µM

CS(=O)(=O)c1ccc(-c2cn3ccccc3n2)cc1 [Zolimidine]
IC50 [1]: 12.1 µM

CC(C)Oc1ccc2c(=O)c(-c3ccccc3)coc2c1 [Ipriflavone]
IC50 [1]: 5.3 µM

CNC(=O)c1ccccc1Sc1ccc2c(/C=C/c3ccccn3)n[nH]c2c1 [Axitinib]
IC50 [1]: 5.3 µM

Oc1ccc(C=Cc2cc(O)cc(O)c2)cc1 [Resveratrol]
IC50 [1]: 9 µM

O=C(O)c1cccc(-c2noc(-c3ccccc3F)n2)c1 [Ataluren]
CC50 at 42 h ([2]; CC50, A549 cells, Table 1): > 100 µM
IC50 [1]: 0.1 µM
EC50 (DENV2 [3]; [9]): < 2 µM
IC50 [4, 10]: 21.6 µM
Therapeutic index (TI) (CC50/EC50) (DENV2 [5]; DENV2, Table 1): >50

Cc1cc2nc3ccc(N(C)C)cc3[s+]c2cc1N [Toluidine blue]
IC50 [1, 11]: 14.3 µM

O=C(Nc1ccc([N+](=O)[O-])cc1Cl)c1cc(Cl)ccc1O [Niclosamide, 5-chloro-N-(2-chloro-4-nitrophenyl)-2-hydroxybenzamide]
EC50 ([6]; Zika virus, A549, ZIKV): 0.48 ± 0.06 µM
EC90 ([6]; Zika virus, A549, ZIKV): 1.9 µM
binding of FLAG-NS2B to GST-NS3 [7]: significantly decreased the binding
Kd [8]: 6.4 µM
EC50 (YFV; Yellow fever virus, A549): 0.84 ± 0.02 µM
EC90 (YFV; Yellow fever virus, A549): 1.9 µM
IC50 [1]: 0.7 µM
EC50 (DENV2 [3]; DENV2, A549): 0.55 ± 0.05 µM
EC90 (DENV2 [3]; DENV2, A549): 2.3 µM
EC50 (DENV2 [3]; [9]): 0.55 µM
effectiveness of addition at 24-hour post-infection versus at the time of infection (ZIKV): almost equally effective
EC50 (JEV; [12]): 1.02 ± 0.08 µM
EC90 (JEV; [12]): 2.4 µM
EC90 (WNV; West Nile virus, A549, WNV): 2.3 µM
EC50 (WNV; West Nile virus, A549, WNV, read-out: EC50): 0.54 ± 0.17 µM
IC50 [4, 10]: 12.3 µM
IC50 ([4]; Table 3, read-out: IC50-pro): 12.3 ± 0.6 µM
expression of ZIKV NS3 (western blot) (ZIKV NS3 expression): significantly inhibited
Therapeutic index (TI) (CC50/EC50) (DENV2 [5]; DENV2, Table 1): >182
Tm compared to the DMSO control (DENV2 His-MBP-NS3): increased Tm

Nc1ccc(/N=N/c2ccccc2)c(N)n1 [Phenazopyridine hydrochloride]
IC50 [1]: 13.2 µM

CN(C)c1ccc2nc3ccc(=[N+](C)C)cc-3sc2c1 [Methylene blue, [7-(dimethylamino)phenothiazin-3-ylidene]-dimethylazanium;chloride]
EC50 ([6]; Zika virus, A549, ZIKV*, without ambient light (in dark)): 0.28 µM
titer of ZIKV in the absence of light exposure [6]: significantly reduced the titer
IC50 [1]: 5.5 µM
EC50 (DENV2 [3]; [9]): < 2 µM
EC50 (WNV; West Nile virus, A549): 0.1 µM
IC50 [4, 10]: 41.6 µM
IC50 ([4]; Table 3, read-out: IC50-pro): 40 µM

Nc1ccc(N=Nc2ccccc2)cc1 [4-Aminoazobenzene]
IC50 [1]: 12.6 µM

CC(C)CCOC(=O)c1ccc(N(C)C)cc1 [Padimate]
IC50 [1, 11]: 14.4 µM

Amlenasox
IC50 [1, 11]: 4.7 µM

COc1ccc2nc(NC(=O)Nc3ccccc3)sc2c1 [Frentizole]
IC50 [1]: 0.38 µM

CCN(CC)c1ccc(C(=C2C=CC(=[N+](CC)CC)C=C2)c2cc(S(=O)(=O)O)ccc2S(=O)(=O)[O-])cc1 [Isosulfan blue]
IC50 [1, 11]: 12.2 µM

CC(=O)Oc1ccccc1C(=O)Nc1ncc([N+](=O)[O-])s1 [Nitazoxanide, [2-[(5-nitro-1,3-thiazol-2-yl)carbamoyl]phenyl]acetate]
EC50 ([6]; Zika virus, A549, ZIKV): 1.48 ± 0.18 µM
EC90 ([6]; Zika virus, A549, ZIKV): 4 µM
Kd [8, 13]: 7.3 µM
CC50 (A549 cells; Table 3): 60 µM
CC50 at 42 h ([2]; CC50, A549 cells, Table 1): > 100 µM
CC50 at 42 h ([2]; CC50, Table 3): 77 ± 7.2 µM
IC50 [1]: 3.4 µM
EC50 (DENV2 [3]; [9]): < 10 µM
EC50 (JEV; [12]): 0.39 µM
IC50 [4, 10]: 15.9 µM
IC50 ([4]; Table 3, read-out: IC50-pro): 15.9 ± 0.9 µM
Therapeutic index (TI) (CC50/EC50) (DENV2 [5]; DENV2, Table 1): >0

3-[10,15,20-tris(3-hydroxyphenyl)-2,3,22,24-tetrahydroporphyrin-5-yl]phenol [Temoporfin]
infected animals protected (survival) (ZIKV GZ01/2016 strain): 83%
EC50 ([6]; ZIKV): 0.024 ± 0.003 µM
EC90 ([6]; ZIKV): 0.13 µM
EC50 [6, 14]: 0.022 ± 0.002 µM
EC90 [6, 14]: 0.12 µM
titer of ZIKV in the absence of light exposure [6]: significantly reduced the titer
binding of FLAG-NS2B to GST-NS3 [7]: significantly decreased the binding
Kd [8, 13]: 0.4 µM
EC50 (YFV; YFV*, without ambient light (in dark), read-out: EC50): 0.006 ± 0.001 µM
EC90 (YFV; YFV*, without ambient light (in dark), read-out: EC90): 0.015 µM
reduction in ZIKV-induced viremia compared to the vehicle control (ZIKV strain GZ01/2016): about 100 fold
CC50 (A549 cells; A549 cells, Table 1): 40.7 µM
CC50 (A549 cells; Table 3): 40.7 ± 0.7 µM
IC50 [1, 11]: 11.2 µM
EC50 value (ZIKV strain GZ01): 0.1 µg/mL
virus reduction (ZIKV; 90 nM added at 0 hours postinfection): 92.3%
virus reduction (ZIKV; 90 nM added at 1 hour postinfection): 92%
virus reduction (ZIKV; 90 nM added at 3 hours postinfection): 90.5%
virus reduction (ZIKV; 90 nM added at 22 hours postinfection): 86.5%
effectiveness of addition at 24-hour post-infection versus at the time of infection (ZIKV): almost equally effective
EC50 (SLEV): 0.008 ± 0.001 µM
EC90 (SLEV): 0.025 µM
EC50 (JEV; [15]): 0.011 ± 0.001 µM
EC90 (JEV; [15]): 0.025 µM
EC90 (WNV; WNV*, without ambient light (in dark)): 0.03 µM
EC50 (WNV; WNV*, without ambient light (in dark), read-out: EC50): 0.01 ± 0.001 µM
IC50 [4, 10]: 0.76 µM
IC50 ([4]; Table 3, read-out: IC50-pro): 1.1 ± 0.1 µM
Vmax of the His-NS2B/MBP-NS3 hetero protease complex, % of the DMSO control ([4]; compound at 1.5 μM, 50 nM MBP-NS3, 1 μM His-NS2B, Abz substrate): 57%
Km versus DMSO control ([4]; compound at 1.5 μM, Abz substrate): similar
expression of ZIKV NS3 (western blot) (ZIKV NS3 expression): significantly inhibited
EC50 (POWV): 0.01 ± 0.001 µM
EC90 (POWV): 0.032 µM
EC50 (DENV2 [5]; DENV2, Table 3): 0.02 ± 0.003 µM
EC90 (DENV2 [5]; DENV2, Table 3): 0.11 µM
EC50 (DENV2 [5]; read-out: EC50 (DENV2), Table 1): 0.073 µM
Tm compared to the DMSO control (DENV2 His-MBP-NS3): increased Tm

O=c1c(-c2ccc(O)cc2)coc2cc(O)cc(O)c12 [Genistein]
IC50 [1]: 7.2 µM
